In PubChem BioAssay (NCI):
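Exposure lasted 48 hours, with cells grown in 96-well plates and compounds tested at five concentrations. GI50: concentration for 50% inhibition of growth. TGI denotes the concentration required for complete inhibition of growth.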

Legend:
Assay in all cases: growth of human tumour cells (NCI), 48 h
SN12K1 renal = system: SN12K1 renal
SNB-78 CNS = system: SNB-78 CNS
RXF-631 renal = system: RXF-631 renal
DU-145 prostate = system: DU-145 prostate
BT-549 breast = system: BT-549 breast
MDA-MB-435 = system: MDA-MB-435
MDA-N = system: MDA-N

Structure (SMILES) | TGI (SN12K1 renal) | TGI (SNB-78 CNS) | TGI (DU-145 prostate) | TGI (MDA-MB-435) | other results
COc1cc(C2c3cc4c(cc3[C@@H](Nc3ccc(N5CCOCC5)cc3)C3COC(=O)[C@H]23)OCO4)cc(OC)c1O (some centres undefined) | 3.6 µM | – | – | – | –
N/C(=N\N=C/c1cc(Cl)cc(Cl)c1O)NO | 6.93 µM | > 100 µM | – | – | –
CCOC(=O)C1CCn2c(nc3c(=O)n(C)c(=O)n(C)c32)S1 (centres undefined) | – | > 100 µM | – | – | TGI (RXF-631 renal): > 100 µM
CC1=NN(C(=O)c2ccccc2)C(=O)C1N=Nc1ccccc1C(=O)O (centres undefined) | > 100 µM | – | – | – | –
CCNC(=O)CCCCC(=O)c1c(C)[nH]c(/C=C2\N=C(c3ccc[nH]3)C=C2OC)c1C | – | – | 11 µM | 7.74 µM | GI50 (DU-145 prostate): 3.01 µM; GI50 (BT-549 breast): 2.85 µM; TGI (BT-549 breast): 10.3 µM; GI50 (MDA-MB-435): 2.77 µM
O=C(/C=C\c1ccc(OCCCCCC[P+](c2ccccc2)(c2ccccc2)c2ccccc2)cc1)c1ccc2c(c1)OCCO2 | – | – | 2.6 µM | 2.21 µM | GI50 (DU-145 prostate): 1.21 µM; GI50 (MDA-MB-435): 0.985 µM
O=C(O)C1C2CCC(C2)C1c1ccccc1 (centres undefined) | – | – | > 100 µM | > 100 µM | TGI (MDA-N): > 100 µM
COC(=O)C[C@](O)(CCC(C)(C)O)C(=O)O[C@@H]1C(OC)=C[C@]23CCCN2CCc2cc4c(cc2[C@H]13)OCO4 | 0.359 µM | 1.04 µM | – | – | –
Cc1cc(C)c(N)c(C)c1N | – | > 100 µM | – | – | –
CCOC(=O)CCc1c(C)c2c(O)cc(O)cc2oc1=O | > 100 µM | > 100 µM | – | – | –
O=C(/C=C/c1ccsc1)c1ccc(Cl)s1 | – | – | > 100 µM | 79.9 µM | TGI (MDA-N): > 100 µM
CC(C(O)c1ccccc1)[N+](=O)[O-] (centres undefined) | – | – | 35.5 µM | 38.2 µM | –
